Results published in patent US8796246B2, “9, 10-secopregnane derivative and pharmaceutical” (Nippon Shinyaku Co., Ltd., priority 2006, dated 2014).

What was measured:
[1] = system: human acute myelogenous leukemia cell line HL-60; assay: Ability to induce differentiation of HL-60 cells (oxygen radical production after phorbol ester, WST-1); assay type: cell-based; details: 72 hours incubation, then WST-1 and phorbol 12,13-didecanoate for 4 hours, absorbance at 450 nm
[2] = Metabolic rate in human liver microsome; assay type: in vitro ADME; details: pooled human liver microsome 1 mg/mL protein, NADPH-regenerating system, 37° C., 2-60 minutes, HPLC
[3] = Action to increase the urinary excretion of calcium (1), percutaneous administration; assay type: in vivo, SD male rats; details: percutaneous 10 μg/200 μL/kg/day once a day for 4 days; for Calcium in Urine within 24 hours: accumulated excretion 0 to 24 hours; for Calcium in Urine within 48 hours: accumulated excretion 0 to 48 hours; for Calcium in Urine within 72 hours: accumulated excretion 0 to 72 hours; for Calcium in Urine within 96 hours: accumulated excretion 0 to 96 hours
Method: The compound of the invention mentioned in Example 1, 36, 43, 47, 48, 55 or 70 or maxacalcitol in ethanol containing 0.5% DMSO was repeatedly subjected to a percutaneous administration (10 μg/200 μL/kg/day) once a day for 4 days onto the back of SD male rats (7 weeks of age). Ethanol containing 0.5% DMSO was administered to a control group. The calcium concentration in urine collected every 24 hours was measured and multiplied by the amount of urine to calculate the urinary excretion of calcium. The calcium excretion in urine shown in Table 3 indicates the accumulated calcium excretion from 0 to 24 hours, from 0 to 48 hours, from 0 to 72 hours, and from 0 to 96 hours.

[4] = Action to increase calcium concentration in serum, percutaneous administration; assay type: in vivo, SD male rats; details: for Serum Calcium Concentration: percutaneous 33 μg/200 μL/kg/day once a day for 7 days, blood 24 hours after final administration
Method: The compound of the invention mentioned in Example 1 or maxacalcitol in ethanol containing 0.3% DMSO was repeatedly subjected to percutaneous administration (33 μg/200 μL/kg/day) once a day for 7 days onto the back of SD male rats (7 weeks of age). Ethanol containing 0.3% DMSO was administered to a control group. At 24 hours after the final administration, blood was collected and the calcium concentration in serum was measured.

[5] = Action to increase the urinary excretion of calcium (2), intravenous administration; assay type: in vivo, SD male rats; details: intravenous 22.4 nmol/kg
Method: The compound of the invention mentioned in Example 42, 61 or 66, or maxacalcitol in saline containing 0.1% Triton X 100/5.6% DMSO (22.4 nmol/kg) was subjected to an intravenous administration to SD male rats (7 weeks of age) Saline containing 0.1% Triton X 100/5.6% DMSO was administered to a control group. The calcium concentration in urine collected within 24 hours after the administration was measured and the urinary excretion of calcium ([calcium concentration in urine]×[amount of urine]) and the ratio of urinary excretion of calcium based on the control group ([calcium amount in urine in administration of the test compound]/[calcium amount in urine in the control group]) were calculated.

| SMILES | EC50 [1] [nM] | Metabolic Rate [2] [pmol/min/mg] | Calcium in Urine within 24 hours [3] [mg] | Calcium in Urine within 48 hours [3] [mg] | Calcium in Urine within 72 hours [3] [mg] | Calcium in Urine within 96 hours [3] [mg] | Serum Calcium Concentration [4] [mg/dL] | Calcium in Urine ([5]; urine collected within 24 hours after administration) [mg] | Ratio of Calcium in Urine (to control) ([5]; urine within 24 hours, test compound/control group) [%] | EC50 ([1]; Homo sapiens) [nM] | effect on the calcium concentration in serum (in words) ([4]; percutaneous 33 μg/200 μL/kg/day for 7 days) |
| --- | --- | --- | --- | --- | --- | --- | --- | --- | --- | --- | --- |
| C=C1/C(=C\C=C2/CCC[C@]3(C)[C@@H]([C@H](C)OC(=O)CCC(C)(C)O)CC[C@@H]23)C[C@@H](O)C[C@@H]1O [Compound of Example 1, (1S,3R,20S)-20-(4-hydroxy-4-methylpentanoyloxy)-9,10-secopregna-5Z,7E,10(19)-triene-1,3-diol] | 1.5 | 78 | 0.8 | 1.4 | 2.3 | 3.8 | 11.8 |  |  |  |  |
| C=C1/C(=C\C=C2/CCC[C@]3(C)[C@@H]([C@H](C)OCCC(C)(C)O)CC[C@@H]23)C[C@@H](O)C[C@@H]1O [Maxacalcitol, (1S,3R,20S)-20-(3-hydroxy-3-methylbutyloxy)-9,10-secopregna-5Z,7E,10(19)-trien-1,3-diol, reference compound] |  | 10 | 2.6 | 4.5 | 8.5 | 13.9 | 15.0 | 2.3 | 460 | 5.4 | increased the calcium concentration in serum |
